The data set in a line: clinical. The following applies: human, in vivo.

The term Cmax denotes the highest concentration seen after dosing. Usually Tmax stands for the time from dosing to the highest level.

For the compound `CN(C)CCc1c[nH]c2ccc(Cn3cncn3)cc12` [Rizatriptan, rizatriptan], the Cmax worked out at 20.7 ng/mL and the Tmax turned out to be 45 min.

Source of the values: US20250367121A1, “DOSAGE FORMS COMPRISING ACTIVE PHARMACEUTICAL INGREDIENTS” (AXSOME THERAPEUTICS, INC., priority 2018, published 2025).
